# From ChEMBL document CHEMBL4420076, “Amylin and calcitonin receptor agonist” (2017)
# Numbered stars: 1 amine (or outer) side, 2 acyl side, 3 side chain; on linkers, the order of the positions; unused ones are H or OH. Peptide text beside a SMILES is read from it. * marks the point of attachment. C20 diacid = O=C(O)CCCCCCCCCCCCCCCCCCC(=O)*; C18 diacid = O=C(O)CCCCCCCCCCCCCCCCC(=O)*; γGlu = O=C(O)[C@H](CCC(=O)[*:2])N[*:1]
# What was measured:
# [1] = biological target: T1, Amylin receptor AMY3; CALCR/RAMP3 (Homo sapiens, UniProt O60896+P30988); assay: Agonist activity at human amylin receptor expressed in BHK570 cells co-expressing RAMP3 assessed as increase in intracellular cAMP concentration incubated for 3 hrs in absence of albumin by CRE luciferase reporter gene assay; type: functional, cell-based
# T1 sequence (P30988 whole entry): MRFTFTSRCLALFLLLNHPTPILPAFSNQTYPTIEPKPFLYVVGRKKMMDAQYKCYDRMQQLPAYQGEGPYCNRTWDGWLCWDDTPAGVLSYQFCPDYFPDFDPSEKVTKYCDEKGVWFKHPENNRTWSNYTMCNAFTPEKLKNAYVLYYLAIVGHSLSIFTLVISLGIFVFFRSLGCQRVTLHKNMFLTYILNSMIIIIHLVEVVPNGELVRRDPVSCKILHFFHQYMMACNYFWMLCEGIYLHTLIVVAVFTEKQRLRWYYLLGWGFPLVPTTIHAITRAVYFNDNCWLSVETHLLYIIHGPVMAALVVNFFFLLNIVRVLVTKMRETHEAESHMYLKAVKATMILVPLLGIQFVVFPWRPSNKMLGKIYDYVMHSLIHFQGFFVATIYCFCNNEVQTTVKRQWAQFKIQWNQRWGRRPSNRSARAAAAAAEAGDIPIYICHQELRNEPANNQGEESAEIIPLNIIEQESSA
# T1 sequence (O60896 whole entry): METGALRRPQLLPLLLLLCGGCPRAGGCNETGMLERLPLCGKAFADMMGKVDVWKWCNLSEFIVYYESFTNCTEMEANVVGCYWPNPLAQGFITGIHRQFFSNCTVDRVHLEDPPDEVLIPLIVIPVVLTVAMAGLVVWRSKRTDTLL
# [2] = Solubility in 100 mM glycylglycine buffer at pH 4.0 incubated for 18 hrs by UPLC analysis; type: physicochemical
# [3] = Solubility in 100 mM bistrispropane buffer at pH 7.5 incubated for 18 hrs by UPLC analysis; type: physicochemical
# Calcitonin receptor [4] = biological target: T2, Calcitonin receptor (Homo sapiens, UniProt P30988); assay: Agonist activity at human calcitonin receptor expressed in BHK570 cells assessed as increase in intracellular cAMP concentration incubated for 3 hrs in absence of albumin by CRE luciferase reporter gene assay; type: functional, cell-based
# T2 sequence (P30988 whole entry): T1 sequence (P30988 whole entry)
# Calcitonin receptor [5] = biological target: T2, Calcitonin receptor; assay: Displacement of [125I]-labeled human calcitonin from human calcitonin receptor expressed in BHK tkts13 whole cells incubated for 60 mins by scintillation proximity assay; type: cell-based
# [6] = Solubility in 100 mM bistrispropane buffer at pH 6.5 incubated for 18 hrs by UPLC analysis; type: physicochemical
# [7] = Solubility in 100 mM glycylglycine buffer at pH 5.0 incubated for 18 hrs by UPLC analysis; type: physicochemical
# [8] = Solubility in 100 mM bistrispropane buffer at pH 7.0 incubated for 18 hrs by UPLC analysis; type: physicochemical
# [9] = Solubility in 100 mM bistrispropane buffer at pH 6.0 incubated for 18 hrs by UPLC analysis; type: physicochemical
# [10] = Solubility in 100 mM glycylglycine buffer at pH 3.0 incubated for 18 hrs by UPLC analysis; type: physicochemical
# [11] = Solubility in 100 mM bistrispropane buffer at pH 8.0 incubated for 18 hrs by UPLC analysis; type: physicochemical
# [12] = biological target: T1, Amylin receptor AMY3; CALCR/RAMP3; assay: Displacement of [125I]-labeled rat amylin from human amylin receptor expressed in BHK tkts13 whole cells co-expressing RAMP3 incubated for 60 mins by scintillation proximity assay; type: cell-based
# Rattus norvegicus [13] = assay: Reduction in food intake in Sprague-Dawley rat at 3 nmol/kg measured 0 to 24 hrs post dose relative to control; type: functional; set-up: scale not given: the % may be the effect or the level left
# Rattus norvegicus [14] = assay: Reduction in food intake in Sprague-Dawley rat at 3 nmol/kg measured 24 to 48 hrs post dose relative to control; type: functional; set-up: scale not given: the % may be the effect or the level left
# [15] = biological target: T1, Amylin receptor AMY3; CALCR/RAMP3; assay: Agonist activity at human amylin receptor expressed in BHK570 cells co-expressing RAMP3 assessed as increase in intracellular cAMP concentration incubated for 3 hrs in presence of 10% FBS by CRE luciferase reporter gene assay; type: functional, cell-based
# Calcitonin receptor [16] = biological target: T2, Calcitonin receptor; assay: Agonist activity at human calcitonin receptor expressed in BHK570 cells assessed as increase in intracellular cAMP concentration incubated for 3 hrs in presence of 10% FBS by CRE luciferase reporter gene assay; type: functional, cell-based
EC50 [1] [nM],solubility at 18 h [2] [µM],solubility at 18 h [3] [µM],EC50 (Calcitonin receptor [4]) [nM],IC50 (Calcitonin receptor [5]) [nM],solubility at 18 h [6] [µM],solubility at 18 h [7] [µM],solubility at 18 h [8] [µM],solubility at 18 h [9] [µM],solubility at 18 h [10] [µM],solubility at 18 h [11] [µM],IC50 [12] [nM],EC50 [15] [nM],EC50 (Calcitonin receptor [16]) [nM],SMILES,Activity (Rattus norvegicus [13]) [%],Activity (Rattus norvegicus [14]) [%]
0.009,≥ 200,≥ 200,0.011,0.605,≥ 200,≥ 200,≥ 200,≥ 200,≥ 200,≥ 200,,,,CC(C)C[C@H](NC(=O)[C@H](C)NC(=O)[C@H](C)NC(=O)[C@@H](NC(=O)[C@H](CO)NC(=O)[C@H](CC(C)C)NC(=O)[C@H](CCC(N)=O)NC(=O)[C@H](CO)NC(=O)[C@H](C)NC(=O)CC[C@H](NC(=O)CCCCCCCCCCCCCCCCC(=O)O)C(=O)O)[C@@H](C)O)C(=O)NCC(=O)N[C@@H](CCCNC(=N)N)C(=O)N[C@@H](CC(C)C)C(=O)N[C@@H](CO)C(=O)N[C@@H](C)C(=O)N[C@@H](CCC(=O)O)C(=O)N[C@@H](CC(C)C)C(=O)N[C@@H](Cc1cnc[nH]1)C(=O)N[C@@H](CCC(=O)O)C(=O)N[C@@H](CC(C)C)C(=O)N[C@@H](C)C(=O)N[C@H](C(=O)N[C@@H](CC(C)C)C(=O)N1CCC[C@H]1C(=O)N[C@@H](CCCNC(=N)N)C(=O)N[C@H](C(=O)N[C@@H](CCC(=O)O)C(=O)N[C@H](C(=O)NCC(=O)N[C@@H](CO)C(=O)NCC(=O)N[C@@H](CO)C(=O)N1CCC[C@H]1C(N)=O)[C@@H](C)O)[C@@H](C)O)[C@@H](C)O ({C18 diacid-γGlu}-ASQLSTAALGRLSAELHELATLPRTETGSGSP-NH2),,
0.02,≥ 200,≥ 200,0.017,1.17,≥ 200,≥ 200,≥ 200,≥ 200,≥ 200,≥ 200,1.27,,,CC(C)C[C@H](NC(=O)[C@H](C)NC(=O)[C@H](C)NC(=O)[C@@H](NC(=O)[C@H](CO)NC(=O)[C@H](CC(C)C)NC(=O)[C@H](CCC(=O)O)NC(=O)[C@H](CO)NC(=O)[C@H](C)NC(=O)[C@H](CCC(=O)O)NC(=O)CCCCCCCCCCCCCCCCC(=O)O)[C@@H](C)O)C(=O)NCC(=O)N[C@@H](CCCNC(=N)N)C(=O)N[C@@H](CC(C)C)C(=O)N[C@@H](CO)C(=O)N[C@@H](C)C(=O)N[C@@H](CCC(=O)O)C(=O)N[C@@H](CC(C)C)C(=O)N[C@@H](Cc1cnc[nH]1)C(=O)N[C@@H](CCC(=O)O)C(=O)N[C@@H](CC(C)C)C(=O)N[C@@H](C)C(=O)N[C@H](C(=O)N[C@@H](CC(C)C)C(=O)N1CCC[C@H]1C(=O)N[C@@H](CCCNC(=N)N)C(=O)N[C@H](C(=O)N[C@@H](CCC(=O)O)C(=O)N[C@H](C(=O)NCC(=O)N1CCC[C@H]1C(=O)N[C@@H](CCC(=O)O)C(=O)N[C@@H](Cc1cnc[nH]1)C(=O)N1CCC[C@H]1C(N)=O)[C@@H](C)O)[C@@H](C)O)[C@@H](C)O ({C18 diacid}-EASELSTAALGRLSAELHELATLPRTETGPEHP-NH2),,
0.008,,≥ 200,0.007,0.752,≥ 200,≥ 200,≥ 200,≥ 200,≥ 200,≥ 200,,,,CC(C)C[C@H](NC(=O)[C@H](CCC(=O)O)NC(=O)[C@H](C)NC(=O)[C@H](CO)NC(=O)[C@H](CC(C)C)NC(=O)[C@H](CCCNC(=N)N)NC(=O)CNC(=O)[C@H](CC(C)C)NC(=O)[C@@H](NC(=O)[C@H](C)NC(=O)[C@@H](NC(=O)[C@H](CO)NC(=O)[C@H](CC(C)C)NC(=O)[C@H](CCC(=O)O)NC(=O)[C@H](CO)NC(=O)[C@H](C)NC(=O)[C@H](CCC(=O)O)NC(=O)CCCCCCCCCCCCCCCCC(=O)O)[C@@H](C)O)C(C)C)C(=O)N[C@@H](C)C(=O)N[C@@H](CCC(=O)O)C(=O)N[C@@H](CC(C)C)C(=O)N[C@@H](C)C(=O)N[C@H](C(=O)N[C@@H](CC(C)C)C(=O)N1CCC[C@H]1C(=O)N[C@@H](CCCNC(=N)N)C(=O)N[C@H](C(=O)N[C@@H](CCC(=O)O)C(=O)N[C@H](C(=O)NCC(=O)N1CCC[C@H]1C(=O)N[C@@H](CCC(=O)O)C(=O)N[C@@H](CO)C(=O)N1CCC[C@H]1C(N)=O)[C@@H](C)O)[C@@H](C)O)[C@@H](C)O ({C18 diacid}-EASELSTAVLGRLSAELAELATLPRTETGPESP-NH2),73,39
0.022,≥ 200,≥ 200,,2.94,≥ 200,,≥ 200,≥ 200,≥ 200,≥ 200,2.61,0.15,0.105,CC(C)C[C@H](NC(=O)[C@H](CCCNC(=N)N)NC(=O)CNC(=O)[C@H](CC(C)C)NC(=O)[C@@H](NC(=O)[C@H](C)NC(=O)[C@@H](NC(=O)[C@H](CO)NC(=O)[C@H](CC(C)C)NC(=O)[C@H](CCC(=O)O)NC(=O)[C@H](CO)NC(=O)[C@H](C)NC(=O)CC[C@H](NC(=O)CCCCCCCCCCCCCCCCCCC(=O)O)C(=O)O)[C@@H](C)O)[C@@H](C)O)C(=O)N[C@@H](CO)C(=O)N[C@@H](C)C(=O)N[C@@H](CCC(=O)O)C(=O)N[C@@H](CC(C)C)C(=O)N[C@@H](Cc1cnc[nH]1)C(=O)N[C@@H](CCC(=O)O)C(=O)N[C@@H](CC(C)C)C(=O)N[C@@H](CO)C(=O)N[C@H](C(=O)N[C@@H](Cc1ccc(O)cc1)C(=O)N1CCC[C@H]1C(=O)N[C@@H](CCCNC(=N)N)C(=O)N[C@H](C(=O)N[C@@H](CCC(=O)O)C(=O)N[C@H](C(=O)NCC(=O)N[C@@H](CO)C(=O)NCC(=O)N[C@@H](CO)C(=O)N1CCC[C@H]1C(N)=O)[C@@H](C)O)[C@@H](C)O)[C@@H](C)O ({C20 diacid-γGlu}-ASELSTATLGRLSAELHELSTYPRTETGSGSP-NH2),,
0.066,,,0.056,0.796,,,,,,,0.338,,,CC(C)C[C@H](NC(=O)[C@H](CCCNC(=N)N)NC(=O)CNC(=O)[C@H](CC(C)C)NC(=O)[C@@H](NC(=O)[C@H](C)NC(=O)[C@@H](NC(=O)[C@H](CO)NC(=O)[C@H](CC(C)C)NC(=O)[C@H](CCC(N)=O)NC(=O)[C@H](CO)NC(=O)[C@H](C)NC(=O)[C@H](CCC(=O)O)NC(=O)CC[C@H](NC(=O)CCCCCCCCCCCCCCCCCCC(=O)O)C(=O)O)[C@@H](C)O)C(C)C)C(=O)N[C@@H](CO)C(=O)N[C@@H](CCC(N)=O)C(=O)N[C@@H](CCC(=O)O)C(=O)N[C@@H](CC(C)C)C(=O)N[C@@H](Cc1cnc[nH]1)C(=O)N[C@@H](CCC(=O)O)C(=O)N[C@@H](CC(C)C)C(=O)N[C@@H](CCC(N)=O)C(=O)N[C@H](C(=O)N[C@@H](Cc1ccc(O)cc1)C(=O)N1CCC[C@H]1C(=O)N[C@@H](CCCNC(=N)N)C(=O)N[C@H](C(=O)NCC(=O)N[C@H](C(=O)NCC(=O)N[C@@H](CO)C(=O)NCC(=O)N[C@H](C(=O)N[C@@H](Cc1ccc(O)cc1)C(N)=O)[C@@H](C)O)[C@@H](C)O)[C@@H](C)O)[C@@H](C)O ({C20 diacid-γGlu}-EASQLSTAVLGRLSQELHELQTYPRTGTGSGTY-NH2),,
